Results on 7 molecules are retold here after ChEMBL document CHEMBL6109077, “Design, synthesis and in vitro validation of bivalent binders of SARS-CoV-2 spike protein: Obeticholic, betulinic and glycyrrhetinic acids as building blocks” (Bioorg Med Chem, 2025).

Calls of active or inactive are those of the source. The rule behind the calls is not given here.

Assay [1] concerns 293T/ACE2. Put plainly: Inhibition of spike protein D614G mutant in pseudotyped SARS-CoV-2 infected in 293T/ACE2 cells assessed as reduction in viral entry at 10 uM preincubated with virus for 1 hr followed by cell infection and measured after 48 hrs by bright-glo luciferase reporter gene assay. The class given is cell-based. The conditions noted are these: Severe acute respiratory syndrome coronavirus 2, time 49.0 hrs. On the technique in general: In a reporter assay the amount or activity of a reporter protein is the signal.

The test system of assay [2] is 293T/ACE2. Put plainly: Inhibition of spike protein Omicron BA.2 mutant in pseudotyped SARS-CoV-2 infected in 293T/ACE2 cells assessed as reduction in viral entry at 10 uM preincubated with virus for 1 hr followed by cell infection and measured after 48 hrs by bright-glo luciferase reporter gene assay. The class given is cell-based. To be noted: Severe acute respiratory syndrome coronavirus 2, time 49.0 hrs.

Regarding `CC1(C)[C@@H](O)CC[C@]2(C)[C@H]3C(=O)C=C4[C@@H]5C[C@@](C)(C(=O)O)CC[C@]5(C)CC[C@@]4(C)[C@]3(C)CC[C@@H]12`, the inhibition entry in the assay on 293T/ACE2 [1] and in the assay with 293T/ACE2 [2] was “Not active; No Statistically Significant Decrease Observed” throughout.

As for `C=C(C)[C@@H]1CC[C@]2(C(=O)OC)CC[C@]3(C)[C@H](CC[C@@H]4[C@@]5(C)CC[C@H](OC(=O)CCCNC(=O)CC[C@@H](C)[C@H]6CC[C@H]7[C@@H]8[C@H](O)[C@H](CC)[C@@H]9C[C@H](O)CC[C@]9(C)[C@H]8CC[C@]67C)C(C)(C)[C@@H]5CC[C@]43C)[C@@H]12`, the inhibition result with 293T/ACE2 [1] and in the assay with 293T/ACE2 [2] was “Active; Statistically Significant Effect Observed” each time.

For the molecule `CC[C@H]1[C@@H](O)[C@@H]2[C@H](CC[C@]3(C)[C@@H]([C@H](C)CCC(=O)NCCCCCCn4cc(CCCCC(=O)O[C@H]5CC[C@H]6[C@@H](CC[C@]7(C)[C@@H]6C(=O)C=C6[C@@H]8C[C@@](C)(C(=O)OC)CC[C@]8(C)CC[C@]67C)C5(C)C)nn4)CC[C@@H]23)[C@@]2(C)CC[C@@H](O)C[C@@H]12`, the inhibition entry in the assay with 293T/ACE2 [1] and in the assay on 293T/ACE2 [2] was “inactive” throughout.

On to `CC[C@H]1[C@@H](O)[C@@H]2[C@H](CC[C@]3(C)[C@@H]([C@H](C)CCC(=O)O)CC[C@@H]23)[C@@]2(C)CC[C@@H](O)C[C@@H]12`, for which the inhibition result in the assay with 293T/ACE2 [1] and with 293T/ACE2 [2] was “Not active; No Statistically Significant Decrease Observed” throughout.

Consider `C=C(C)[C@@H]1CC[C@]2(C(=O)OC)CC[C@]3(C)[C@H](CC[C@@H]4[C@@]5(C)CC[C@H](OC(=O)CCCCCCCCNC(=O)CC[C@@H](C)[C@H]6CC[C@H]7[C@@H]8[C@H](O)[C@H](CC)[C@@H]9C[C@H](O)CC[C@]9(C)[C@H]8CC[C@]67C)C(C)(C)[C@@H]5CC[C@]43C)[C@@H]12`, for which the inhibition entry with 293T/ACE2 [1] and in the assay with 293T/ACE2 [2] was “Active; Statistically Significant Effect Observed” in each case.

For the molecule `C=C(C)[C@@H]1CC[C@]2(C(=O)OC)CC[C@@]3(C)[C@@H]4CC[C@@H]5[C@H](CC[C@H](OC(=O)CCCCc6cn(CCCCCCNC(=O)CC[C@@H](C)[C@H]7CC[C@H]8[C@@H]9[C@H](O)[C@H](CC)[C@@H]%10C[C@H](O)CC[C@]%10(C)[C@H]9CC[C@]78C)nn6)C5(C)C)[C@H]4CC[C@@H]3[C@@H]12`, the inhibition result in the assay on 293T/ACE2 [1] was “inactive”. In addition, in the assay on 293T/ACE2 [2], the inhibition entry was “Active; Significant Effect Observed”.

As for `C=C(C)[C@@H]1CC[C@]2(C(=O)O)CC[C@]3(C)[C@H](CC[C@@H]4[C@@]5(C)CC[C@H](O)C(C)(C)[C@@H]5CC[C@]43C)[C@@H]12`, the inhibition result in the assay with 293T/ACE2 [1] and in the assay with 293T/ACE2 [2] was “Not active; No Statistically Significant Decrease Observed” throughout.
